{"source": "patent US20260294915A1", "about": "“COMBINATION THERAPY COMPRISING A MAT2A INHIBITOR AND A TOPOISOMERASE INHIBITOR, A SPLICING INHIBITOR SULFONAMIDE, OR A KIF18 INHIBITOR” (IDEAYA BIOSCIENCES, INC., priority 2023, published 2026)", "system": "RT112/84 human bladder tumor cell-derived xenograft (CDX) model", "assay": "Anti-tumor activity in RT112/84 mouse xenograft (CDX) model (Example 7)", "type": "in vivo", "conditions": "Compound A 10 mg/kg oral once per day", "description": "All mouse studies were approved by the Institutional Animal Care and Use Committee (IACUC) based on guidelines from the National Institutes of Health (NIH). Mice were maintained under pathogen-free conditions, and food and water were provided ad libitum.\nThe anti-tumor effect of Compound A and irinotecan hydrochloride as single-agents or in combination was assessed in the RT112/84 human bladder tumor cell-derived xenograft (CDX) model. Cells were expanded in RPMI-1640 (Gibco, Catalog Number 11875093) with 10% fetal bovine serum. These cells were free of mycoplasma and authenticated by STR profiling. Five million cells in log growth phase were resuspended in Hanks Balanced Salt Solution containing 50% Matrigel and implanted subcutaneously into the flank of each recipient female Crl:NU-Foxnlnu mouse. Mice were housed in microisolator cages with corn cob bedding with additional enrichment consisting of sterile nesting material (Innovive) and Bio-huts (Bio-Serv). Water (Innovive) and diet (Teklad Global 19% Protein Extruded Diet 2919, Irradiated) were provided ad libitum. The environment was maintained on a 12-hour light cycle at approximately 68-72° F. and 40-60% relative humidity.\nTumor Volume (TV) was calculated using the following formula: TV (mm^3)=(width×width×length)/2. Tumor growth inhibition (TGI) was calculated by [(TV controlfinal−TV treatedfinal)/(TV controlfinal−TV controlinitial)×100]. TV was analyzed for statistical significance utilizing GraphPad Prism version 10.0.3. Repeated Measures 2-Way ANOVA with Tukey's Multiple Comparisons was utilized, and P-values were derived from data collected on Day 14 (date of Vehicle group termination) and were considered statistically significant if less than 0.05. Tumor regression was calculated by using the percent change in tumor volume from the final tumor volume measurement from Day 73 when compared to the initial tumor volume from Day 1. Tumor regression was defined as reduced TV on Day 73 compared to Day 1. Tumor regression rate was defined as the percentage of animals per group with tumor regression.\nMean tumor volume at dosing start was approximately 249 mm^3, with ten mice randomized to each treatment group. Mice were dosed orally, once per day, with Vehicle, Compound A at 10 mg/kg, or dosed for 3 consecutive days followed by 4 days holiday by intraperitoneal (IP) injection of Compound B at 5 mg/kg, or combination of Compound A and Compound B. The vehicle group was a combination of Vehicle A (for Compound A, 0.5% 400 cps methylcellulose with 0.5% Tween-80 in sterile water) and Vehicle B (for irinotecan hydrochloride, Saline).", "data": [{"smiles": "Nc1nc(=O)n(-c2ccccc2Cl)c2nc(C(F)(F)F)ccc12", "note": "[Compound A]", "values": [{"measurement": "Day 14 TGI", "value": 53, "unit": "%"}, {"measurement": "Day 14 TV (mean)", "setting": "initial TV 249, vehicle 1069", "value": 632, "unit": "mm^3"}, {"measurement": "TGI", "setting": "irinotecan 5 mg/kg IP 3 days on/4 days off", "value": 53, "unit": "%"}]}]}
